This data set is described as follows: Octanol-water distribution coefficient (LogDpH=7.4). Format: physicochemical. As to conditions: n-octanol/PBS pH 7.4; radioactive ligand. The protocol:
This distribution coefficient may be determined by measuring the equilibrium distribution, e.g. at room temperature (20° C.o) of a compound in accordance with the invention in a two-phase system containing equal amounts, such as 1.00 ml each, of n-octanol and PBS (pH=7.4), and calculating the logD7.4 value as log 10 (concentration in octanol/concentration in PBS). Instead of the (absolute) concentration of the compound in accordance with the invention in the octanol and the PBS, a parameter which is proportional to the concentration of the compound in each phase may also be used for the calculation, such as the activity of radiation if the compound comprises a radioactive moiety, e.g. a radioactive chelate.
The radioactive ligand of interest (0.7-1.0 MBq) is given to a mixture of n-octanol and PBS (1 ml, 1/1; v/V) in a 1.5 ml reaction tube and shaken vigorously for 3 min. The resulting mixture is centrifuged (9000 rpm, 5 min, RT), and 100 μl of the octanol and PBS phases isolated separately.
Quantification occurs by the determination of the activity of each isolated probe in a γ-counter. The LogDpH=7.4 value is determined by the following equation:
The determination of the final LogDpH=7.4 value is executed in octets. The mean value and standard deviation are determined after the removal of outlying values.

Take `C[C@@H](O)[C@H](NC(=O)[C@@H]1CSSC[C@H](NC(=O)[C@@H](Cc2ccccc2)NC(=O)CN2CCN(CC(=O)O)CCN(CC(=O)NCCCC[C@@H](NC(=O)[C@@H](CNC(=O)C[N+](C)(C)Cc3ccc([Si](F)(C(C)(C)C)C(C)(C)C)cc3)NC(=O)[C@@H](CN)NC(=O)[C@@H](CCC(=O)O)NC(=O)[C@H](N)CCC(=O)O)C(=O)O)CCN(CC(=O)O)CC2)C(=O)N[C@@H](Cc2ccc(O)cc2)C(=O)N[C@H](Cc2c[nH]c3ccccc23)C(=O)N[C@@H](CCCCN)C(=O)N[C@@H]([C@@H](C)O)C(=O)N1)C(=O)O` [Compound 05, H-D-Glu-D-Glu-D-Dap-D-Dap(N-SiFAlin-N,N-Mez-Gly)-D-Lys(trans-DOTA-TATE)-OH]: the “LogDpH=7.4” value is on record as −1.96 ± 0.06.

Take `C[C@@H](O)[C@H](NC(=O)[C@@H]1CSSC[C@H](NC(=O)[C@@H](Cc2ccccc2)NC(=O)CN2CCN(CC(=O)O)CCN(CC(=O)NCCCC[C@@H](NC(=O)[C@@H](CNC(=O)C[N+](C)(C)Cc3ccc([Si](F)(C(C)(C)C)C(C)(C)C)cc3)NC(=O)[C@@H](CCCCN)NC(=O)[C@@H](CCC(=O)O)NC(=O)[C@H](N)CCC(=O)O)C(=O)O)CCN(CC(=O)O)CC2)C(=O)N[C@@H](Cc2ccc(O)cc2)C(=O)N[C@H](Cc2c[nH]c3ccccc23)C(=O)N[C@@H](CCCCN)C(=O)N[C@@H]([C@@H](C)O)C(=O)N1)C(=O)O` [Compound 06, H-D-Glu-D-Glu-D-Lys-D-Dap(N-SiFAlin-N,N-Mez-Gly)-D-Lys(trans-DOTA-TATE)-OH]: the “LogDpH=7.4” value is listed as −2.36 ± 0.03.

`C[C@@H](O)[C@H](NC(=O)[C@@H]1CSSC[C@H](NC(=O)[C@@H](Cc2ccccc2)NC(=O)CN2CCN(CC(=O)O)CCN(CC(=O)NCCCC[C@@H](NC(=O)C[N+](C)(C)Cc3ccc([Si](F)(C(C)(C)C)C(C)(C)C)cc3)C(=O)O)CCN(CC(=O)O)CC2)C(=O)N[C@@H](Cc2ccc(O)cc2)C(=O)N[C@H](Cc2c[nH]c3ccccc23)C(=O)N[C@@H](CCCCN)C(=O)N[C@@H]([C@@H](C)O)C(=O)N1)C(=O)O` [[Ga]01, N-SiFAlin-N,N-Me2-Gly-D-Lys(trans-[^natGa] DOTA-TATE)-OH, metal not drawn]: the “LogDpH=7.4” value is −1.19 ± 0.07.

As for `C[C@@H](O)[C@H](NC(=O)[C@@H]1CSSC[C@H](NC(=O)[C@@H](Cc2ccccc2)NC(=O)CN2CCN3CCN(CC(=O)NC[C@@H](NC(=O)C[N+](C)(C)Cc4ccc([Si](F)(C(C)(C)C)C(C)(C)C)cc4)C(=O)O)CCN(CC2)CC(=O)[O][Ga+][O]C(=O)C3)C(=O)N[C@@H](Cc2ccc(O)cc2)C(=O)N[C@H](Cc2c[nH]c3ccccc23)C(=O)N[C@@H](CCCCN)C(=O)N[C@@H]([C@@H](C)O)C(=O)N1)C(=O)O` [[Ga]02, N-SiFAlin-N, N-Me2-Gly-D-Dap(trans-[^natGa] DOTA-TATE)-OH], the “LogDpH=7.4” value was −1.03 ± 0.04.

Take `C[C@@H](O)[C@H](NC(=O)[C@@H]1CSSC[C@H](NC(=O)[C@@H](Cc2ccccc2)NC(=O)CN2CCN(CC(=O)O)CCN(CC(=O)NCCCC[C@@H](NC(=O)[C@@H](CNC(=O)C[N+](C)(C)Cc3ccc([Si](F)(C(C)(C)C)C(C)(C)C)cc3)NC(=O)[C@@H](CCCNC(N)=O)NC(=O)[C@@H](CCCNC(N)=O)NC(=O)[C@H](N)CCCNC(N)=O)C(=O)O)CCN(CC(=O)O)CC2)C(=O)N[C@@H](Cc2ccc(O)cc2)C(=O)N[C@H](Cc2c[nH]c3ccccc23)C(=O)N[C@@H](CCCCN)C(=O)N[C@@H]([C@@H](C)O)C(=O)N1)C(=O)O` [[Ga]03, H-D -Cit-D -Cit-D -Cit-D-Dap(N-SiFAlin-N,N-Me2-Gly)-D-Lys(trans-[na′Ga] DOTA-TATE)-OH]: the “LogDpH=7.4” value is reported as −2.27 ± 0.04.

In the case of `C[C@@H](O)[C@H](NC(=O)[C@@H]1CSSC[C@H](NC(=O)[C@@H](Cc2ccccc2)NC(=O)CN2CCN(CC(=O)O)CCN(CC(=O)NCCCC[C@@H](NC(=O)[C@@H](CNC(=O)C[N+](C)(C)Cc3ccc([Si](F)(C(C)(C)C)C(C)(C)C)cc3)NC(=O)[C@@H](CCCNC(N)=O)NC(=O)[C@@H](CCCNC(N)=O)NC(=O)[C@H](N)CCC(=O)O)C(=O)O)CCN(CC(=O)O)CC2)C(=O)N[C@@H](Cc2ccc(O)cc2)C(=O)N[C@H](Cc2c[nH]c3ccccc23)C(=O)N[C@@H](CCCCN)C(=O)N[C@@H]([C@@H](C)O)C(=O)N1)C(=O)O` [[Ga]04, H-D-Glu-D -Cit-D -Cit-D-Dap(N-SiFAlin-N,N-Mez-Gly)-D-Lys(trans-[^natGa] DOTA-TATE)-OH, metal not drawn], the “LogDpH=7.4” value is given as −2.30 ± 0.03.

`C[C@@H](O)[C@H](NC(=O)[C@@H]1CSSC[C@H](NC(=O)[C@@H](Cc2ccccc2)NC(=O)CN2CCN3CCN(CC(=O)NCCCC[C@@H](NC(=O)[C@@H](CNC(=O)C[N+](C)(C)Cc4ccc([Si](F)(C(C)(C)C)C(C)(C)C)cc4)NC(=O)[C@@H](CN)NC(=O)[C@@H](CCC(=O)O)NC(=O)[C@H](N)CCC(=O)O)C(=O)O)CCN(CC2)CC(=O)[O][Ga+][O]C(=O)C3)C(=O)N[C@@H](Cc2ccc(O)cc2)C(=O)N[C@H](Cc2c[nH]c3ccccc23)C(=O)N[C@@H](CCCCN)C(=O)N[C@@H]([C@@H](C)O)C(=O)N1)C(=O)O` [[Ga]05, H-D-Glu-D-Glu-D-Dap-D-Dap(N-SiFAlin-N,N-Me2-Gly)-D-Lys(trans-[^natGa] DOTA-TATE)-OH]: the “LogDpH=7.4” value is −2.12 ± 0.06.

Turning to `C[C@@H](O)[C@H](NC(=O)[C@@H]1CSSC[C@H](NC(=O)[C@@H](Cc2ccccc2)NC(=O)CN2CCN3CCN(CC(=O)NCCCC[C@@H](NC(=O)[C@@H](CNC(=O)C[N+](C)(C)Cc4ccc([Si](F)(C(C)(C)C)C(C)(C)C)cc4)NC(=O)[C@@H](CCCCN)NC(=O)[C@@H](CCC(=O)O)NC(=O)[C@H](N)CCC(=O)O)C(=O)O)CCN(CC2)CC(=O)[O][Ga+][O]C(=O)C3)C(=O)N[C@@H](Cc2ccc(O)cc2)C(=O)N[C@H](Cc2c[nH]c3ccccc23)C(=O)N[C@@H](CCCCN)C(=O)N[C@@H]([C@@H](C)O)C(=O)N1)C(=O)O` [[Ga]06, H-D-Glu-D-Glu-D-Lys-D-Dap(N-SiFAlin-N, N-Me2-Gly)-D-Lys(trans-[^natGa] DOTA-TATE)-OH], the “LogDpH=7.4” value was −2.28 ± 0.04.

For the compound `C[C@@H](O)[C@H](NC(=O)[C@@H]1CSSC[C@H](NC(=O)[C@@H](Cc2ccccc2)NC(=O)CN2CCN3CCN(CC(=O)NCCCC[C@@H](NC(=O)[C@@H](CNC(=O)C[N+](C)(C)Cc4ccc([Si](F)(C(C)(C)C)C(C)(C)C)cc4)NC(=O)[C@@H](CCC(=O)O)NC(=O)[C@@H](CCC(=O)O)NC(=O)[C@H](N)CCC(=O)O)C(=O)O)CCN(CC2)CC(=O)[O][Ga+][O]C(=O)C3)C(=O)N[C@@H](Cc2ccc(O)cc2)C(=O)N[C@H](Cc2c[nH]c3ccccc23)C(=O)N[C@@H](CCCCN)C(=O)N[C@@H]([C@@H](C)O)C(=O)N1)C(=O)O` [[Ga]07, H-D-Glu-D-Glu-D-Glu-D-Dap(N-SiFAlin-N,N-Me2-Gly)-D-Lys(trans-[^natGa] DOTA-TATE)-OH], the “LogDpH=7.4” value is given as −2.30 ± 0.04.

Regarding `C[C@@H](O)[C@H](NC(=O)[C@@H]1CSSC[C@H](NC(=O)[C@@H](Cc2ccccc2)NC(=O)CN2CCN3CCN(CC(=O)NCCCC[C@@H](NC(=O)[C@@H](CCC(=O)O)NC(=O)[C@@H](CNC(=O)C[N+](C)(C)Cc4ccc([Si](F)(C(C)(C)C)C(C)(C)C)cc4)NC(=O)[C@@H](CCC(=O)O)NC(=O)[C@@H](CCC(=O)O)NC(=O)[C@H](N)CCC(=O)O)C(=O)O)CCN(CC2)CC(=O)[O][Ga+][O]C(=O)C3)C(=O)N[C@@H](Cc2ccc(O)cc2)C(=O)N[C@H](Cc2c[nH]c3ccccc23)C(=O)N[C@@H](CCCCN)C(=O)N[C@@H]([C@@H](C)O)C(=O)N1)C(=O)O` [[Ga]08, H-D-Glu-D-Glu-D-Glu-D-Dap(N-SiFAlin-N,N-Me2-Gly)-D-Glu-D-Lys(trans-[^natGa] DOTA-TATE)-OH], the “LogDpH=7.4” value is given as −2.07 ± 0.04.

Turning to `C[C@@H](O)[C@H](NC(=O)[C@@H]1CSSC[C@H](NC(=O)[C@@H](Cc2ccccc2)NC(=O)CN2CCN(CC(=O)O)CCN(CC(=O)NCCCC[C@@H](NC(=O)[C@@H](CNC(=O)C[N+](C)(C)Cc3ccc([Si](F)(C(C)(C)C)C(C)(C)C)cc3)NC(=O)[C@@H](CCC(=O)O)NC(=O)[C@@H](CCC(=O)O)NC(=O)[C@@H](CCC(=O)O)NC(=O)[C@]3(O)C[C@@H](O)[C@@H](O)[C@H](O)C3)C(=O)O)CCN(CC(=O)O)CC2)C(=O)N[C@@H](Cc2ccc(O)cc2)C(=O)N[C@H](Cc2c[nH]c3ccccc23)C(=O)N[C@@H](CCCCN)C(=O)N[C@@H]([C@@H](C)O)C(=O)N1)C(=O)O` [[Ga]09, D-(−)-quinic acid-D-Glu-D-Glu-D-Glu-D-Dap(N-SiFAlin-N,N-Me2-Gly)-D-Lys(trans-[^natGa] DOTA-TATE)-OH, metal not drawn], the “LogDpH=7.4” value was −2.28 ± 0.04.
